Results taken from patent US9145415B2, “Nitrogen-containing heterocyclic compound or salt thereof” (FUJIFILM Corporation, priority 2012, dated 2015).
Where two headings read alike, the source gives them in different places.

How the values were obtained:
[1] = biological target: T1, human FLT3 protein (FLT3 (WT)) (Homo sapiens, UniProt P36888); assay: FLT3 inhibition test (FLT3 enzyme inhibition, time-resolved fluorescence of substrate peptide phosphorylation); format: biochemical; details: read-out: FLT3 (WT) enzyme inhibition activity
T1 construct: human FLT3 protein (intracellular region, 564 to 993 aa); GST; purchased Carna Biosciences; host or cells: baculovirus expression system
T1 sequence (P36888 564-993): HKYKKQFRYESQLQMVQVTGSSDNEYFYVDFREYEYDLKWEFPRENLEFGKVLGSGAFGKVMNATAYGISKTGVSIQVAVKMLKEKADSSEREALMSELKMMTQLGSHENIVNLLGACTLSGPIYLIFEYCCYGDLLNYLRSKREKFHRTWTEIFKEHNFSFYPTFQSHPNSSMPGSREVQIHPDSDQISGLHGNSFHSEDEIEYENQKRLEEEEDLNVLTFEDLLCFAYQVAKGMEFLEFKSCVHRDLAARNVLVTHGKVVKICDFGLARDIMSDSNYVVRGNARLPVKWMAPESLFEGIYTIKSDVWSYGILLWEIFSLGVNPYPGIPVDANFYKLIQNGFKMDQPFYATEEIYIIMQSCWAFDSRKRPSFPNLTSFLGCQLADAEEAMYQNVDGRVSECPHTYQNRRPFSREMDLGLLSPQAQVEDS
Procedure, shortened: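 Substrate peptide phosphorylation detected by time-resolved fluorescence after a 30 min kinase reaction at 25° C with 50 μM ATP (final). Beforehand, compound and FLT3 (WT, 1.2 μg) stood 15 min at 25° C in HEPES buffer pH 7.5 containing MgCl2, NaCl, BSA and DTT.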

[2] = tested on: MV4-11 cells; assay: Leukemia cell proliferation inhibition test (ATPlite), MV4-11; format: cell-based; details: Homo sapiens, read-out: MV4-11 cell proliferation inhibition effect
Procedure, shortened: (§1)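 Molm-13 or MV4-11 cells in RPMI with 10% FBS and pen/strep, seeded at 10,000 cells per well, were exposed to serially diluted compound for 72 hours at 37° C, 5% CO2. Total cellular ATP was read by luciferase luminescence. GI50 came from sigmoid fits against the 0.1% DMSO control, in duplicate.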

[3] = tested on: Molm-13 cells; assay: Leukemia cell proliferation inhibition test (ATPlite), Molm-13; format: cell-based; details: Homo sapiens, read-out: MOLM13 cell proliferation inhibition effect
Procedure, shortened: as §1

[4] = GST-fused human FLT3 (564 to 993 aa), ATP 50 μM
[5] = MV4-11, 72 h, MV4-11, 72 hours culture, ATPlite, GI50 per method
[6] = MOLM-13, 72 h, Molm-13, 72 hours culture, ATPlite, GI50 per method

SMILES: C[C@@H](C(=O)NCCCC#Cc1cnc(Nc2cccc(F)c2)nc1N1CCOCC1)N(C)C(=O)/C=C/CN(C)C [Compound 10-5, (S,E)-4-(Dimethylamino)-N-(1-((5-(2-((3-fluorophenyl)amino)-4-morpholinopyrimidin-5-yl)-4-pentyn-1-yl)amino)-1-oxopropan-2-yl)-N-methyl-2-butenamide]
- IC50 [1, 4]: < 10 nM
- IC50 [2, 5]: < 10 nM
- IC50 [3, 6]: < 10 nM

SMILES: CCCNc1nc(Nc2ccc(F)c(F)c2)ncc1C#CCCCNC(=O)[C@H](C)N(C)C(=O)/C=C/CN(C)C [Compound 7-41]
- IC50 [1, 4]: < 10 nM
- IC50 [2, 5]: < 10 nM
- IC50 [3, 6]: < 10 nM

SMILES: C[C@@H](C(=O)NCCCC#Cc1cnc(Nc2ccc(C#N)cc2)nc1Nc1ccc(F)cc1)N(C)C(=O)/C=C/CN(C)C [Compound 10-2, (S,E)-N-(1--((5-(2-((4-cyanophenyl)amino)-4-((4-fluorophenyl)amino)pyrimidin-5-yl)-4-pentyn-1-yl)amino)-1-oxopropan-2-yl)-4-(dimethylamino)-N-methyl-2-butenamide]
- IC50 [1, 4]: < 10 nM
- IC50 [2, 5]: < 10 nM
- IC50 [3, 6]: < 10 nM

SMILES: CCCNc1nc(Nc2ccc(C#N)cc2)ncc1C#C[C@H]1CCC[C@@H](NC(=O)[C@H](C)N(C)C(=O)/C=C/CN(C)C)C1 [Compound 13-3]
- IC50 [1, 4]: < 10 nM
- IC50 [2, 5]: < 10 nM
- IC50 [3, 6]: 10 to 100 nM

SMILES: CCCNc1nc(Nc2cccc3cn[nH]c23)ncc1C#CCCCNC(=O)[C@H](C)N(C)C(=O)/C=C/CN(C)C [Compound 21-56]
- IC50 ([1]; FLT3 (WT)): 10 to 100 nM
- IC50 ([2]; MV4-11, MV4-11 cell): 100 to 1000 nM
- IC50 ([3]; MOLM-13, MOLM13 cell): 100 to 1000 nM

SMILES: CNc1nc(Nc2ccc(F)cc2)ncc1C#CCCCNC(=O)[C@@H]1C[C@H](O)CN1C(=O)/C=C/CN(C)C [Compound 7-84]
- IC50 [1, 4]: < 10 nM
- IC50 [2, 5]: < 10 nM
- IC50 [3, 6]: < 10 nM

SMILES: C[C@@H](C(=O)NCCCC#Cc1cnc(Nc2cccc(F)c2)nc1Nc1ccc(C#N)cc1)N(C)C(=O)/C=C/CN(C)C [Compound 7-14]
- IC50 [1, 4]: < 10 nM
- IC50 [2, 5]: < 10 nM
- IC50 [3, 6]: 10 to 100 nM

SMILES: CCCNc1nc(NCC)ncc1C#CCCCNC(=O)[C@H](C)N(C)C(=O)/C=C/CN(C)C [Compound 11-3]
- IC50 [1, 4]: 10 to 100 nM
- IC50 [2, 5]: 100 to 1000 nM
- IC50 [3, 6]: 100 to 1000 nM

SMILES: CCCNc1nc(NCCc2ccncc2)ncc1C(=O)Nc1ccc(C)c(NC(=O)CNC(=O)/C=C/CN(C)C)c1 [Compound 1-8]
- IC50 [1, 4]: < 10 nM
- IC50 [2, 5]: < 10 nM
- IC50 [3, 6]: 10 to 100 nM

SMILES: COCCCNc1nc(Nc2ccnc(OC)c2)ncc1C#CCCCNC(=O)[C@@H]1CCCN1C(=O)/C=C/CN(C)C [Compound 9-32, (S,E)-1-(4-(Dimethylamino)-2-butenoyl)-N-(5-(4-((3-methoxypropyl)amino)-2-((methoxypyridin-4-yl)amino)pyrimidin-5-yl)-4-pentyn-1-yl)pyrrolidine-2-carboxamide]
- IC50 [1, 4]: < 10 nM
- IC50 [2, 5]: < 10 nM
- IC50 [3, 6]: < 10 nM

SMILES: C=CC(=O)N(C)CC(=O)NCCCNC(=O)c1cnc(NC(=O)Nc2ccncc2)nc1NCCC [Compound 6-12]
- IC50 [1, 4]: < 10 nM
- IC50 [2, 5]: 10 to 100 nM
- IC50 [3, 6]: 100 to 1000 nM

SMILES: CCCNc1nc(Nc2cccc3c2cnn3C)ncc1C#CCCCNC(=O)[C@H](C)N(C)C(=O)/C=C/CN(C)C [Compound 21-5]
- IC50 [1, 4]: 100 to 1000 nM
- IC50 [2, 5]: > 1000 nM
- IC50 [3, 6]: 100 to 1000 nM

SMILES: CCCNc1nc(Nc2ccc(C#N)cc2)ncc1C#CCCCNC(=O)[C@H](COC)NC(=O)/C=C/CN(C)C [Compound 7-44]
- IC50 [1, 4]: < 10 nM
- IC50 [2, 5]: < 10 nM
- IC50 [3, 6]: < 10 nM

SMILES: CCCNc1nc(Nc2cccc(F)c2)ncc1C#Cc1cccc(NC(=O)[C@H](C)N(C)C(=O)/C=C/CN(C)C)c1 [Compound 8-1, (S,E)-4-(dimethylamino)-N-(1-((3-((2-((3-fluorophenyl)amino)-4-(propylamino)pyrimidin-5-yl)ethynyl)phenyl)amino)-1-oxopropan-2-yl)-N-methyl-2-butenamide]
- IC50 [1, 4]: < 10 nM
- IC50 [2, 5]: < 10 nM
- IC50 [3, 6]: < 10 nM

SMILES: C=CC(=O)NCCC(=O)Nc1cccc(NC(=O)c2cnc(NCCc3ccncc3)nc2NCCC)c1 [Compound 2-7]
- IC50 [1, 4]: < 10 nM
- IC50 [2, 5]: 10 to 100 nM
- IC50 [3, 6]: 100 to 1000 nM

SMILES: CCCNc1nc(Nc2ccc(C#N)cc2)ncc1C#C[C@H]1C[C@@H](NC(=O)[C@H](C)N(C)C(=O)/C=C/CN(C)C)C1 [Compound 13-9]
- IC50 [1, 4]: < 10 nM
- IC50 [2, 5]: < 10 nM
- IC50 [3, 6]: < 10 nM

SMILES: COc1ccc(Nc2ncc(C#C[C@H]3C[C@@H](NC(=O)[C@H](C)N(C)C(=O)/C=C/CN(C)C)C3)c(NC3CC3)n2)cc1F (relative stereo) [Compound 15-10, (E)-N—((S)-1-(((1S*,3R*)-3-((4-(Cyclopropylamino)-2-((3-fluoro-4-methoxyphenyl)amino)pyrimidin-5-yl)ethynyl)cyclobutyl)amino)-1-oxopropan-2-yl)-4-(dimethylamino)-N-methyl-2-butenamide]
- IC50 [1, 4]: < 10 nM
- IC50 [2, 5]: < 10 nM
- IC50 [3, 6]: < 10 nM

SMILES: C[C@@H](C(=O)NCCCC#Cc1cnc(Nc2ccnc(F)c2)nc1NC1CC1)N(C)C(=O)/C=C/CN(C)C [Compound 9-15, (S,E)-N-(1-((5-(4-(Cyclopropylamino)-2-((2-fluoropyridin-4-yl)amino)pyrimidin-5-yl)-4-pentyn-1-yl)amino)-1-oxopropan-2-yl)-4-(dimethylamino)-N-methyl-2-butenamide]
- IC50 [1, 4]: < 10 nM
- IC50 [2, 5]: < 10 nM
- IC50 [3, 6]: < 10 nM

SMILES: C=CC(=O)NCCOc1cccc(NC(=O)c2cnc(NCCc3ccncc3)nc2NCCC)c1 [Compound 2-20]
- IC50 [1, 4]: < 10 nM
- IC50 [2, 5]: 10 to 100 nM
- IC50 [3, 6]: 10 to 100 nM

SMILES: C=CC(=O)NCC(=O)NCCCNC(=O)c1cnc(NCCc2ccncc2)nc1NCCC [Compound 2-2, N-(3-(2-(acrylylamido)actamido)propyl)-4-(propylamino)-2-((2-(pyridin-4-yl)ethyl)amino)pyrimidine-5-carboxamide]
- IC50 [1, 4]: < 10 nM
- IC50 [2, 5]: 10 to 100 nM
- IC50 [3, 6]: 10 to 100 nM

SMILES: CCCNc1nc(Nc2cccc(OC(F)(F)F)c2)ncc1C#CCCCNC(=O)[C@H](C)N(C)C(=O)/C=C/CN(C)C [Compound 11-10]
- IC50 [1, 4]: < 10 nM
- IC50 [2, 5]: < 10 nM
- IC50 [3, 6]: 10 to 100 nM

SMILES: CCCNc1nc(Nc2ccc(C(N)=O)cc2)ncc1C(=O)NC1CCCC(NC(=O)CNC(=O)/C=C/CN(C)C)C1 (stereo not drawn) [Compound 3-3]
- IC50 [1, 4]: < 10 nM
- IC50 [2, 5]: 10 to 100 nM
- IC50 [3, 6]: 10 to 100 nM

SMILES: CCCNc1nc(Nc2ccc3cnn(CCOC)c3c2)ncc1C#CCCCNC(=O)[C@H](C)N(C)C(=O)/C=C/CN(C)C [Compound 22-11]
- IC50 ([1]; FLT3 (WT)): < 10 nM
- IC50 ([2]; MV4-11, MV4-11 cell): < 10 nM
- IC50 ([3]; MOLM-13, MOLM13 cell): < 10 nM

SMILES: CCCNc1nc(Nc2ccc(C(N)=O)cc2)ncc1C(=O)Nc1cccc(N2CCN(C(=O)/C=C/CN(C)C)CC2)c1 [Compound 3-31]
- IC50 [1, 4]: < 10 nM
- IC50 [2, 5]: 100 to 1000 nM
- IC50 [3, 6]: 100 to 1000 nM

SMILES: C=CC(=O)NCC(=O)NCCCNC(=O)c1cnc(Nc2ccc3cnccc3c2)nc1NCCC [Compound 6-5]
- IC50 [1, 4]: < 10 nM
- IC50 [2, 5]: 10 to 100 nM
- IC50 [3, 6]: 10 to 100 nM

SMILES: CCCNc1nc(Nc2ccc(OC(F)(F)F)cc2)ncc1C#CCCCNC(=O)[C@H](C)N(C)C(=O)/C=C/CN(C)C [Compound 12-6]
- IC50 [1, 4]: 10 to 100 nM
- IC50 [2, 5]: 10 to 100 nM
- IC50 [3, 6]: 100 to 1000 nM

SMILES: C=CC(=O)NCCCNC(=O)c1cnc(NCCc2ccncc2)nc1NCCC [Compound 2-21]
- IC50 [1, 4]: 10 to 100 nM
- IC50 [2, 5]: 10 to 100 nM
- IC50 [3, 6]: 10 to 100 nM

SMILES: CCCNc1nc(Nc2ccc(C(N)=O)cc2)ncc1C(=O)NCCCNC(C)(C)CNC(=O)/C=C/CN(C)C [Compound 3-24]
- IC50 [1, 4]: < 10 nM
- IC50 [2, 5]: 10 to 100 nM
- IC50 [3, 6]: 100 to 1000 nM

SMILES: CCCNc1nc(NCCc2ccncc2)ncc1C(=O)NCCC(CC)NC(=O)CN(C)C(=O)/C=C/CN(C)C (stereo not drawn) [Compound 1-12]
- IC50 [1, 4]: < 10 nM
- IC50 [2, 5]: < 10 nM
- IC50 [3, 6]: 10 to 100 nM

SMILES: CNc1nc(Nc2ccc(F)cc2)ncc1C#CCCCNC(=O)[C@@H]1CCN1C(=O)/C=C/CN(C)C [Compound 7-86, (S,E)-1-(4-(Dimethylamino)-2-butenoyl)-N-(5-(2-((4-fluorophenyl)amino)-4-(methylamino)pyrimidin-5-yl)-4-pentyn-1-yl)azetidine-2-carboxamide]
- IC50 [1, 4]: < 10 nM
- IC50 [2, 5]: < 10 nM
- IC50 [3, 6]: < 10 nM

SMILES: CCOc1nc(Nc2ccc(C#N)cc2)ncc1C#C[C@@H]1CCC[C@H](NC(=O)[C@H](C)N(C)C(=O)/C=C/CN(C)C)C1 [Compound 21-20]
- IC50 [1, 4]: < 10 nM
- IC50 [2, 5]: < 10 nM
- IC50 [3, 6]: < 10 nM

SMILES: CCCNc1nc(Nc2ccc(C(N)=O)cc2)ncc1C#CCCCNC(C)(C)CNC(=O)/C=C/CN(C)C [Compound 8-10]
- IC50 [1, 4]: < 10 nM
- IC50 [2, 5]: < 10 nM
- IC50 [3, 6]: 10 to 100 nM
